Results: patent US20250082763A1, “COMBINATION DRUG FOR TREATING TRIPLE-NEGATIVE BREAST CANCER” (HINOVA PHARMACEUTICALS INC., priority 2022, published 2025)

System: AR+ TNBC cells (MDA-MB-453, SUM159PT and MFM-223) and AR- TNBC (MDA-MB-468 and HCC1937)
Experiment: Antiproliferation in AR positive and negative TNBC cells (summary over the cell line panel)
Type: cell-based
Conditions: AR+ TNBC cells: MDA-MB-453, SUM159PT and MFM-223
Procedure: For MDA-MB-453, MFM-223, SUM159PT, MDA-MB-468, and HCC1937, 4,000, 3,000, 1,000, 3,000, and 3,000 cells were plated per well in 96-well microplates (Corning Inc), respectively. Cells were treated with serial dilutions of tested compounds with the maximum working concentration of 10 μM. Cell survival was measured 5 days later using a CellTiter-Glo luminescent cell viability assay kit (Promega Corporation). Luminescence was recorded by FLUOstar Omega microplate reader (BMG Labtech). Half maximal inhibitory concentration (IC50) was determined with GraphPad Prism using baseline correction (by normalizing to dimethyl sulfoxide (DMSO) control)

## N#Cc1ccc(O[C@H]2CC[C@H](NC(=O)c3cnc(N4CCC(CN5CCC6(CC5)CN(c5ccc7c(c5)C(=O)N(C5CCC(=O)NC5=O)C7=O)C6)CC4)nn3)CC2)cc1Cl (stereo partly shown) [Compound 279]
  anti-proliferation activity in AR+ TNBC cells: superior anti-proliferation activity
